Test results from patent publication US7816353B2 (Exelixis, Inc., priority 2003, dated 2010).
pIC50: −log10 of the molar value.

The molecules below were run against T1, p70S6K (Homo sapiens, UniProt P23443, T412E) (assay: p70S6 Kinase Assay (Luciferase-Coupled Chemiluminescent Kinase assay, LCCA)). Conditions: human p70S6 kinase domain residues 1-421, T412E; 5 μM ATP; read-out: p70S6K IC50.
T1 construct: human p70S6 kinase domain residues 1-421, containing a T412E mutation; made in house
Type: biochemical
Protocol: Kinase activity and compound inhibition are investigated using one or more of the three assay formats described below. The ATP concentrations for each assay are selected to be close to the Michaelis-Menten constant (KM) for each individual kinase. Dose-response experiments are performed at 10 different inhibitor concentrations in a 384-well plate format. […] Y=Min+(Max−Min)/(1+(X/IC50)^H) Equation (2) p70S6 Kinase Assay
Biochemical activity of p70S6 kinase was assessed using a Luciferase-Coupled Chemiluminescent Kinase assay (LCCA) format. Kinase activity was measured as the percent ATP remaining following the kinase reaction. Remaining ATP was detected by luciferase-luciferin-coupled chemiluminescence. […] The mixture is incubated at ambient temperature for 2 hours after which 20 μL luciferase-luciferin mix is added and the chemiluminescent signal read using a Wallac Victor^2 reader.

T1 sequence (P23443 1-421 T412E): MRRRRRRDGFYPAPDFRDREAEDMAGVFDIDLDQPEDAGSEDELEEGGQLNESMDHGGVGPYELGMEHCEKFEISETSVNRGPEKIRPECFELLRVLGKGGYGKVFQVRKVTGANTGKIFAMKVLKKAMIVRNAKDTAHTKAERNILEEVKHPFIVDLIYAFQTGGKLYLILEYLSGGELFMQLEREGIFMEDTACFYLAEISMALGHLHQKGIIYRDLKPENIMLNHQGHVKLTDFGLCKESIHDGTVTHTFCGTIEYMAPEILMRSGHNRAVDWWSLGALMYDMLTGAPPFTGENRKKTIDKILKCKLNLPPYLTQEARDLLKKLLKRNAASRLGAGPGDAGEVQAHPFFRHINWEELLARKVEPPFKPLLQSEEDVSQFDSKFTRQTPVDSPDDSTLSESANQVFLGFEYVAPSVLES

SMILES | pIC50
CCOc1nc(N)nc(N[C@@H](Cc2ccc(O)cc2)C(=O)Nc2cccc(C(F)(F)F)c2)c1C#N [Example 154, Nalpha-[2-amino-5-cyano-6-(ethyloxy)pyrimidin-4-yl]-N-[3-(trifluoromethyl)phenyl]-L-tyrosinamide] | < 5.70
CCN(CC)CCOc1cccc(NC(=O)[C@H](C)Nc2nc(N)nc(SC)c2C#N)c1 [Example 92, N^2-[2-amino-5-cyano-6-(methylthio)pyrimidin-4-yl]-N-(3-{[2-(diethylamino)ethyl]oxy}phenyl)-L-alaninamide] | < 5.70
CSc1nc(NC(C)=O)nc(N(C(C)=O)[C@@H](CCCNC(C)=O)C(=O)Nc2cccc(C(F)(F)F)c2)c1C#N [Example 166, N~2~,N~5~-diacetyl-N~2~-[2-(acetylamino)-5-cyano-6-(methylthio)pyrimidin-4-yl]-N-[3-(trifluoromethyl)phenyl]-L-ornithinamide] | < 5.70
CCOc1nc(N)nc(N[C@@H](CCC(=O)O)C(=O)Nc2cccc(C(F)(F)F)c2)c1C#N [Example 173, N~2~-[2-amino-5-cyano-6-(ethyloxy)pyrimidin-4-yl]-N-[3-(trifluoromethyl)phenyl]-L-alpha-glutamine] | < 5.70
COc1nc(N)nc(N[C@@H](CN(C)C)C(=O)Nc2cccc(C(F)(F)F)c2)c1C#N [Example 178, N~2~-[2-amino-5-cyano-6-(methyloxy)pyrimidin-4-yl]-3-(dimethylamino)-N-[3-(trifluoromethyl)phenyl]-L-alaninamide] | < 5.70
CCOc1nc(N)nc(N(C)[C@@H](CCCCNC(=O)OCc2ccccc2)C(=O)Nc2cccc(C(F)(F)F)c2)c1C#N [Example 162, N~2~-[2-amino-5-cyano-6-(ethyloxy)pyrimidin-4-yl]-N~2~-methyl-N~6~-{[(phenylmethyl)oxy]carbonyl}-N-[3-(trifluoromethyl)phenyl]-L-lysinamide] | < 5.70
CSc1nc(N)nc(NCC(=O)Nc2cccc(C(F)(F)F)c2)c1/C=N/N [Example 58, N^2-[2-amino-5-[(E)-hydrazonomethyl]-6-(methylthio)pyrimidin-4-yl]-N-[3-(trifluoromethyl)phenyl]glycinamide] | 5.70 to 6.30
CCOc1nc(N)nc(N[C@@H](C)C(=O)Nc2cc(C(=O)N3CCN(C)CC3)cc(C(F)(F)F)c2)c1C#N [Example 157, N~2~-[2-amino-5-cyano-6-(ethyloxy)pyrimidin-4-yl]-N-[3-[(4-methylpiperazin-1-yl)carbonyl]-5-(trifluoromethyl)phenyl]-L-alaninamide] | < 5.70
CSc1nc(N)nc(N(C)CC(=O)Nc2cccc(C)c2)c1C#N [Example 109, N^2-[2-amino-5-cyano-6-(methylthio)pyrimidin-4-yl]-N^2-methyl-N-(3-methylphenyl)glycinamide] | < 5.70
COc1ccc(C(F)(F)F)cc1NC(=O)[C@H](C)Nc1nc(N)nc(SC)c1C#N [Example 79, N^2-[2-amino-5-cyano-6-(methylthio)pyrimidin-4-yl]-N-[2-(methyloxy)-5-(trifluoromethyl)phenyl]-L-alaninmide] | < 5.70
CSc1nc(N)nc(SCC(=O)Nc2cc(C(F)(F)F)ccc2N)c1C#N [Example 62] | 5.70 to 6.30
CCOc1nc(N)nc(N(C)[C@@H](C)C(=O)Nc2cccc(Br)c2)c1C#N [Example 174, N~2~-[2-amino-5-cyano-6-(ethyloxy)pyrimidin-4-yl]-N-(3-bromophenyl)-N~2~-methyl-L-alaninamide] | < 5.70
CCOc1nc(N)nc(N[C@@H](C)C(=O)Nc2cc(OCCN(C)C)cc(C(F)(F)F)c2)c1C#N [Example 180, N~2~-[2-amino-5-cyano-6-(ethyloxy)pyrimidin-4-yl]-N-[3-{[2-(dimethylamino)ethyl]oxy}-5-(trifluoromethyl)phenyl]-L-alaninamide] | < 5.70
CSc1nc(N)nc(SCC(=O)Nc2cccc(C(F)(F)F)c2C)c1C#N [Example 53, 2-{[2-amino-5-cyano-6-(methylthio)pyrimidin-4-yl]thio}-N-[2-methyl-3-(trifluoromethyl)phenyl]acetamide] | 5.70 to 6.30
COc1nc(N)nc(N[C@@H](C)C(=O)Nc2cccc(C(F)(F)F)c2)c1C#N [Example 78, N^2-[2-amino-5-cyano-6-(methyloxy)pyrimidin-4-yl]-N-[3-(trifluoromethyl)phenyl]-L-alaninamide] | < 5.70
CCOc1nc(N)nc(N[C@@H](COCc2ccccc2)C(=O)Nc2cccc(C(F)(F)F)c2)c1C#N [Example 151, N~2~-[2-amino-5-cyano-6-(ethyloxy)pyrimidin-4-yl]-O-(phenylmethyl)-N-[3-(trifluoromethyl)phenyl]-L-serinamide] | < 5.70
CSc1nc(N)nc(N(C)[C@@H](CCCCNC(=O)OCc2ccccc2)C(=O)Nc2cccc(C(F)(F)F)c2)c1C#N [Example 153, N~2~-[2-amino-5-cyano-6-(methylthio)pyrimidin-4-yl]-N~2~-methyl-N~6~-{[(phenylmethyl)oxy]carbonyl}-N-[3-(trifluoromethyl)phenyl]-L-lysinamide] | < 5.70

SMILES | pIC50
CSc1nc(N)nc(N(C)NC(=O)Nc2cccc(C(F)(F)F)c2)c1C#N [Example 96, 2-[2-amino-5-cyano-6-(methylthio)pyrimidin-4-yl]-2-methyl-N-[3-(trifluoromethyl)phenyl]hydrazinecaboxamide] | < 5.70
N#Cc1cnc(N2CCOCC2)nc1NCC(=O)Nc1cccc(C(F)(F)F)c1 [Example 76] | < 5.70
CSc1nc(N)nc(NC(C)(C)C(=O)Nc2cccc(C(F)(F)F)c2)c1C#N [Example 81, N^2-[2-amino-5-cyano-6-(methylthio)pyrimidin-4-yl]-2-methyl-N-[3-(trifluoromethyl)phenyl]alaninamide] | < 5.70
CSc1nc(N)nc(OC2(C(=O)Nc3cccc(C(F)(F)F)c3)CC2)c1C#N [Example 69, 1-{[2-amino-5-cyano-6-(methylthio)pyrimidin-4-yl]oxy}-N-[3-(trifluoromethyl)phenyl]cyclopropanecarboxamide] | 5.70 to 6.30
CSc1nc(N)nc(N[C@@H](CCCNC(C)=O)C(=O)Nc2cccc(C(F)(F)F)c2)c1C#N [Example 123, N^5-acetyl-N^2-[2-amino-5-cyano-6-(methylthio)pyrimidin-4-yl]-N-[3-(trifluoromethyl)phenyl]-L-ornithinamide] | < 5.70
CCOc1nc(N)nc(N[C@@H](CCC(N)=O)C(=O)Nc2cccc(C(F)(F)F)c2)c1C#N [Example 175, N~2~-[2-amino-5-cyano-6-(ethyloxy)pyrimidin-4-yl]-N~1~-[3-(trifluoromethyl)phenyl]-L-glutamamide] | < 5.70
Nc1nc(SCC(=O)Nc2cccc(C(F)(F)F)c2)c(CO)c(Sc2ccccc2)n1 [Example 52] | 6.30 to 7.30
CSc1nc(N)nc(N[C@@H](C)C(=O)Nc2cc(C(F)(F)F)ccc2Cl)c1C#N [Example 80, N^2-[2-amino-5-cyano-6-(methylthio)pyrimidin-4-yl]-N-[2-5-(trifluoromethyl)phenyl]-L-alaninamide] | < 5.70
CSc1nc(N)nc(N[C@@H](CCCN/C(N)=N/[N+](=O)[O-])C(=O)Nc2cccc(C(F)(F)F)c2)c1C#N [Example 111, N^2-[2-amino-5-cyano-6-(methylthio)pyrimidin-4-yl]-N^5-[imino(nitroamino)methyl]-N-[3-(trifluoromethyl)phenyl]-L-omithinamide] | < 5.70
C[C@H](Nc1nc(N)nc([S+](C)[O-])c1C#N)C(=O)Nc1cccc(C(F)(F)F)c1 (stereo partly drawn) [Example 74, N^2-[2-amino-5-cyano-6-(methylsulfinyl)pyrimidin-4-yl]-N-[3-(trifluoromethyl)phenyl]-L-alaninamide] | < 5.70
CCOc1nc(N)nc(N(C)[C@@H](C)C(=O)Nc2cccc(C(F)(F)F)c2)c1C#N [Example 121, N^2-[2-amino-5-cyano-6-(ethyloxy)pyrimidin-4-yl]-N^2-methyl-N-[3-(trifluoromethyl)phenyl]-L-alaninamide] | < 5.70
COc1ccc(C(F)(F)F)cc1NC(=O)CSc1nc(N)nc(SC)c1C#N [Example 54, 2-{[2-mino-5-cyano-6-(methylthio)pyrimidin-4-yl]thio}-N-[2-(methyloxy)-5-(trifluoromethyl)phenyl]acetamide] | 5.70 to 6.30
CSc1nc(N)nc(OCC(=O)Nc2cccc(C(F)(F)F)c2)c1CO [Example 56, 2-{[2-amino-5-(hydroxymethyl)-6-(methylthio)pyrimidin-4-yl]oxy}-N-[3-(trifluoromethyl)phenyl]acetamide] | 5.70 to 6.30
CSc1nc(N)nc(OCC(=O)Nc2cccc(C(F)(F)F)c2)n1 [Example 47, 2-{[4-amino-6-(methylthio)-1,3,5-triazin-2-yl]oxy}-N-[3-(trifluoromethyl)phenyl]acetamide] | 6.30 to 7.30
COC(=O)CC[C@H](Nc1nc(N)nc(SC)c1C#N)C(=O)Nc1cccc(C(F)(F)F)c1 [Example 146, methyl N~2~-[2-amino-5-cyano-6-(methylthio0pyrimidin-4-yl]-N-'-(trifluoromethyl)phenyl]-L-alpha-glutaminate] | 5.70 to 6.30
CSc1nc(N)nc(N[C@@H](CCC(=O)OCc2ccccc2)C(=O)Nc2cccc(C(F)(F)F)c2)c1C#N [Example 182, phenylmethyl N~2~-[2-amino-5-cyano-6-(methylthio)pyrimidin-4-yl]-N-[3-(trifluoromethyl)phenyl]-L-alpha-glutaminate] | < 5.70

Same assay, conditions: p70S6K IC50, human p70S6 kinase domain residues 1-421, T412E; 5 μM ATP

SMILES | pIC50
CSc1nc(N)nc(O[C@H](C)C(=O)Nc2cccc(C(F)(F)F)c2)c1C#N [Example 68, (2R)-2-{[2-amino-5-cyano-6-(methylthio)pyrimidin-4-yl]oxy}-N-[3-(trifluoromethyl)phenyl]propanamide] | 5.70 to 6.30
